According to ChEMBL document CHEMBL1155458, “Synthesis, inhibitory activity of cholinesterases, and neuroprotective profile of novel 1,8-naphthyridine derivatives” (J Med Chem, 2010):

Legend:
[1] = target: T1, Acetylcholinesterase (Bos taurus) (UniProt P23795); assay: Displacement of propidium iodide from AChE in bovine erythrocytes at 10 uM after 15 mins by fluorescence plate reader; assay type: cell-based
T1 sequence (whole entry): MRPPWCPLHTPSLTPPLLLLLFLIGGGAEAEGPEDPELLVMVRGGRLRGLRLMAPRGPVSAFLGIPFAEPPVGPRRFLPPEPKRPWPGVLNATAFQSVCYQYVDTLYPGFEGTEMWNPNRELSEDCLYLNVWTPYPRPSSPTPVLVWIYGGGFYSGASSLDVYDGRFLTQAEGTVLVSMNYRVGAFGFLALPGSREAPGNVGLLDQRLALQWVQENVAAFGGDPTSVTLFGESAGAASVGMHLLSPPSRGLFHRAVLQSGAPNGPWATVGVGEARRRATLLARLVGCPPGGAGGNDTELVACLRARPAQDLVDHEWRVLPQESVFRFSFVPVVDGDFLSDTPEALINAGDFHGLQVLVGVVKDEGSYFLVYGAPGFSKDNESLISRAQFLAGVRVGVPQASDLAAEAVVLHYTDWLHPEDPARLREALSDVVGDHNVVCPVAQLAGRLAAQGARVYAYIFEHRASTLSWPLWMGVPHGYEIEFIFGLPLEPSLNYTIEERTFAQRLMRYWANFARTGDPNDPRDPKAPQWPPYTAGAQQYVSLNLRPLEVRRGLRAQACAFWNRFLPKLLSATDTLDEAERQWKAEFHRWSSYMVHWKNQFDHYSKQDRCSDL

[2] = test system: SH-SY5Y; assay: Cytotoxicity against human SH-SY5Y cells assessed as LDH release at 1 uM after 24 hrs by spectrophotometry (reference value: 17.7%); assay type: cell-based
[3] = test system: SH-SY5Y; assay: Neuroprotective activity in human SH-SY5Y cells assessed as protection against rotenone/oligomycin A-induced cell death at 1 uM after 24 hrs by LDH release assay; assay type: functional
[4] = test system: SH-SY5Y; assay: Neuroprotective activity in human SH-SY5Y cells assessed as protection against okadaic acid-induced cell death at 1 uM after 24 hrs by MTT assay; assay type: functional
[5] = target: Cholinesterase (Equus caballus, UniProt P81908)
Description: Inhibition of equine serum BuChE by Ellman's method

[6] = target: T2, Acetylcholinesterase (Homo sapiens, UniProt P22303)
Description: Inhibition of AChE in human erythrocytes by Ellman's method

[7] = target: Acetylcholinesterase (Electrophorus electricus, UniProt O42275)
Description: Inhibition of electric eel AChE by Ellman's method

[8] = target: T3, Acetylcholinesterase (Bos taurus, UniProt P23795); assay: biochemical
T3 sequence (P23795 whole entry): T1 sequence (whole entry)
Description: Displacement of propidium iodide from AChE in bovine erythrocytes after 15 mins by fluorescence plate reader

[9] = target: T1, Acetylcholinesterase (Bos taurus); settings: 1 mM
Description: Displacement of propidium iodide from AChE in bovine erythrocytes at 1 mM after 15 mins by fluorescence plate reader

[10] = organism: Rattus norvegicus; assay: Prevention of okadaic acid-induced inhibition of PP2A in rat brain cortex assessed as increase in inorganic phosphorus release after 1 hr by malachite green assay relative to control; assay type: tissue-based
[11] = target: T2, Acetylcholinesterase; assay: Inhibition of AChE (unknown orign) by Lineweaver-Burke plot
[12] = organism: Rattus norvegicus; assay: Prevention of okadaic acid-induced inhibition of PP2A in rat brain cortex assessed as increase in inorganic phosphorus release at 1 uM after 1 hr by malachite green assay relative to control; assay type: tissue-based; set-up: scale not given: the % may be the effect or the level left
[13] = organism: Rattus norvegicus; assay: Prevention of okadaic acid-induced inhibition of PP2A in rat brain cortex assessed as increase in inorganic phosphorus release at 10 uM after 1 hr by malachite green assay relative to control; assay type: tissue-based; set-up: scale not given: the % may be the effect or the level left
[14] = test system: SH-SY5Y; assay: Neuroprotective activity in human SH-SY5Y cells assessed as protection against amyloid beta(1-42)-induced cell death after 24 hrs by MTT assay; assay type: functional, cell-based
[15] = test system: SH-SY5Y; assay: Neuroprotective activity in human SH-SY5Y cells assessed as protection against amyloid beta(1-42)-induced cell death at 1 uM after 24 hrs by MTT assay; assay type: functional
[16] = test system: SH-SY5Y; assay: Neuroprotective activity in human SH-SY5Y cells assessed as protection against amyloid beta(1-42)-induced cell death at 10 uM after 24 hrs by MTT assay; assay type: functional
[17] = test system: Hippocampus; assay: Neuroprotective activity in isolated rat brain hippocampal slices assessed as protection against oxygen and glucose deprivation-induced cell death after 24 hrs by MTT assay; assay type: functional, tissue-based
[18] = test system: Hippocampus; assay: Neuroprotective activity in isolated rat brain hippocampal slices assessed as protection against oxygen and glucose deprivation-induced cell death at 30 uM after 24 hrs by MTT assay; assay type: functional

Acetylcholinesterase (Electrophorus electricus, UniProt O42275), sequence (O42275 whole entry): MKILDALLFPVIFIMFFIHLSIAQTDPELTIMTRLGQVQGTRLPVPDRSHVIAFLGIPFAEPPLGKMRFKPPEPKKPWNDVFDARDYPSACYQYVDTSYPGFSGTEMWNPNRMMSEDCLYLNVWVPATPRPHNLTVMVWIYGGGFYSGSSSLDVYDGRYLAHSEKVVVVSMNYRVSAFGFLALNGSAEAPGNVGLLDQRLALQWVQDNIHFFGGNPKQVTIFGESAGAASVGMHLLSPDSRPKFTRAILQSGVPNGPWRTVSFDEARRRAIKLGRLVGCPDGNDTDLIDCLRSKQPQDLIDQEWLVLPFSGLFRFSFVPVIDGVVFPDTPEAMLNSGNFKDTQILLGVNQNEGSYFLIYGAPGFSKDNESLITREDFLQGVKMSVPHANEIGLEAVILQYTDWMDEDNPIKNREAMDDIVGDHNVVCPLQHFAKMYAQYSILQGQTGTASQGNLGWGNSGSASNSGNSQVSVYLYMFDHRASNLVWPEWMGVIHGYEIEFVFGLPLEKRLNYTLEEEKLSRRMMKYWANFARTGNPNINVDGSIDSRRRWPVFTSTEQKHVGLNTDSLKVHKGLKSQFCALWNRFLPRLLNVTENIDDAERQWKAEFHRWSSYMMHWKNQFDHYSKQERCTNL
Cholinesterase, sequence (P81908 whole entry): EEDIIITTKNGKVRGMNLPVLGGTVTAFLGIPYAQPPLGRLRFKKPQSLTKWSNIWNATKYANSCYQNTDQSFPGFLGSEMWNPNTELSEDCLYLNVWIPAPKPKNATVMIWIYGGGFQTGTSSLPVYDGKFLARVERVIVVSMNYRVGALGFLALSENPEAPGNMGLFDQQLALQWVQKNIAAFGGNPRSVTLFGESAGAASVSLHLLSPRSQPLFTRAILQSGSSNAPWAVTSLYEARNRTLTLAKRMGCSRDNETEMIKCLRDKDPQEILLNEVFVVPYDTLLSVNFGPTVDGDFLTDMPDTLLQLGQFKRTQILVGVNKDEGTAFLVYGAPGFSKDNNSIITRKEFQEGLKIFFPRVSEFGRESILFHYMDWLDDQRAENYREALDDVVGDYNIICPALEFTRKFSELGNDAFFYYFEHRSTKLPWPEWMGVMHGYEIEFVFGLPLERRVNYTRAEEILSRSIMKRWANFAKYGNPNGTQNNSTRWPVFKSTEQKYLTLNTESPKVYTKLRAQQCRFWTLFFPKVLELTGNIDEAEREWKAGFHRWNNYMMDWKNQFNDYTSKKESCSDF
T2 sequence (P22303 whole entry): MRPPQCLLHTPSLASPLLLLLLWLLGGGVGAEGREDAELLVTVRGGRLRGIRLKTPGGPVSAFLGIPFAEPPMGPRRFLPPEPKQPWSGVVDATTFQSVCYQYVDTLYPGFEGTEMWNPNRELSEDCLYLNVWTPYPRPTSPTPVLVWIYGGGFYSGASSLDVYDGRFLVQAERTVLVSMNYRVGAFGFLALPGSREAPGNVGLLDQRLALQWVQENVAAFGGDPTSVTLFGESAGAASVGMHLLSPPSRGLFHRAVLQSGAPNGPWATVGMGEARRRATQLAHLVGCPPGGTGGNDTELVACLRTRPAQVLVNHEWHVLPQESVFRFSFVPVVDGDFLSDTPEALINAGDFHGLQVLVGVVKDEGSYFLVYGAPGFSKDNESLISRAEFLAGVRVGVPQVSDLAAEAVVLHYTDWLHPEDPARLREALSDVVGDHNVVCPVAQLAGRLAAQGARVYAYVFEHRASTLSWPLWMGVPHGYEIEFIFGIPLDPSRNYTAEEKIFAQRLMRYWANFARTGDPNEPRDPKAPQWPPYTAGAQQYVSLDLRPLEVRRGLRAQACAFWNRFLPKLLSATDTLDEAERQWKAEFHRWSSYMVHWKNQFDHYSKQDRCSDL

`COC(=O)c1cc2c(N)c3c(nc2nc1C)CCCCC3` was tested, and the inhibition [1] was 11%, the Activity [2] was 20.4% and the Activity [3] was 36.1%. For the same molecule, the Activity [4] was 38.7%, the IC50 [5] was 0.49 µM and the IC50 [6] was 2 µM. The IC50 [7] was 0.36 µM and the IC50 [8] was 0.36 µM.
`C=C1[C@@H](O)[C@@H]2O[C@]3(CC[C@H](/C=C/[C@@H](C)[C@@H]4CC(C)=C[C@@]5(O[C@H](C[C@@](C)(O)C(=O)O)CC[C@H]5O)O4)O3)CC[C@H]2O[C@@H]1[C@@H](O)C[C@H](C)[C@H]1O[C@@]2(CCCCO2)CC[C@H]1C` [OKADAIC ACID] gave an Activity [4] of 80.5%.
For `COC(=O)c1cc2c(N)c3c(nc2nc1C)CCCCCC3`, the inhibition [1] was 16%, the Activity [2] was 21.6% and the Activity [3] was 42.3%. It also gave an Activity [4] of 26.2%, an IC50 [5] of 4.07 µM and an IC50 [6] of 1.8 µM. The IC50 [7] was 0.25 µM and the IC50 [8] was 0.25 µM.
Molecule `C=CC[N+](C)(C)c1ccc(CCC(=O)CCc2ccc([N+](C)(C)CC=C)cc2)cc1` has an inhibition [9] of 29%.
In the case of `CC(=O)N[C@@H](CS)C(=O)O` [ACETYLCYSTEINE], the Activity [3] is reported as 33.4%.
`COc1ccc2c3c1O[C@H]1C[C@@H](O)C=C[C@@]31CCN(C)C2` [GALANTAMINE] showed an Activity [4] of 0%.
Molecule `CCOC(=O)c1cc2c(N)c3c(nc2nc1C)CCCCC3` has an inhibition [1] of 10%, an Activity [2] of 19.9% and an Activity [3] of 31.1%. The Activity [4] was 28.9%, the IC50 [5] was 2.1 µM and the IC50 [6] was 2 µM. It also gave an IC50 [7] of 0.31 µM and an IC50 [8] of 0.31 µM.
Work on `CCOC(=O)c1c(C)nc2nc3c(c(N)c2c1-c1ccccc1)CCCC3` yielded an Activity [3] of 26.8%, an Activity [4] of 22.1% and an IC50 [7] of 0.8 µM.
In the case of `COC(=O)c1cc2c(N)c3c(nc2nc1C)CCC3`, the inhibition [1] is reported as 10%, the Activity [2] is reported as 22.1% and the Activity [3] is reported as 37.5%. For the same molecule, the Activity [4] was 36.5%, the IC50 [5] was 5 µM and the IC50 [6] was 1.9 µM. The IC50 [7] was 0.12 µM and the IC50 [8] was 0.12 µM.
With `CCOC(=O)c1cc2c(N)c3c(nc2nc1C)CCCCCC3` the inhibition [1] was 10%, the Activity [2] was 12.7% and the Activity [3] was 32.6%. The Activity [4] was 33.8%, the IC50 [5] was 5.3 µM and the IC50 [6] was 1.8 µM. It also gave an IC50 [7] of 0.4 µM and an IC50 [8] of 0.4 µM.
For `CCOC(=O)c1cc2c(N)c3c(nc2nc1C)CCC3`, the inhibition [1] was 20%, the Activity [2] was 12.3% and the Activity [3] was 28.7%. For the same molecule, the Activity [4] was 39.5%, the IC50 [5] was 39 µM and the IC50 [6] was 2.1 µM. It also gave an IC50 [7] of 0.35 µM and an IC50 [8] of 0.35 µM.
For `COC(=O)c1cc2c(N)c3c(nc2nc1C)CCCC3`, the inhibition [1] was 16%, the Activity [2] was 11.6% and the Activity [3] was 25.8%. The Activity [4] was 44.8%, the IC50 [5] was 3.4 µM and the IC50 [6] was 1 µM. For the same molecule, the IC50 [7] was 0.093 µM and the IC50 [8] was 0.093 µM.
`COc1ccc2[nH]cc(CCNC(C)=O)c2c1` [MELATONIN] showed an Activity [3] of 33.8%.
With `CCOC(=O)c1cc2c(N)c3c(nc2nc1C)CCCC3` the Activity [10] was “Dose-dependent effect”, the Ki [11] was 0.024 µM and the inhibition [1] was 10%. For the same molecule, the Activity [2] was 20.9%, the Activity [3] was 48.4% and the Activity [4] was 75%. For the same molecule, the Activity [12] was 77%, the Activity [13] was 91% and the Activity [14] was “Dose-dependent effect”. For the same molecule, the Activity [15] was 54%, the Activity [16] was 10% and the Activity [17] was “Dose-dependent effect”. For the same molecule, the EC50 [17] was 6 µM, the Activity [18] was 65.5% and the IC50 [8] was 0.06 µM.
